Values joined by “and” are separate entries in the source; they are usually repeats but may differ in a detail not shown here. Equal values may be shown once.
Key:
[1] = instrument: TW, calibrated with polyalanine
[2] = instrument: DT, single field
[3] = instrument: DT, single field, calibrated with Agilent tune mix (Agilent)
[4] = instrument: DT, stepped-field
[5] = instrument: DT, stepped-field; remark: listed apart in the source
[6] = instrument: TW, calibrated with phosphatidylcholines (ESI+) and phosphatidylethanolamines (ESI-)
[7] = [M-H]-; instrument: TW; calibrated with phosphatidylcholines (ESI+) and phosphatidylethanolamines (ESI-)

CC(=O)O[C@@H]1C[C@]2(C)[C@@]3(CO)[C@H](O)C(=O)C(C)=C[C@H]3O[C@H]1[C@@]21CO1 [3-Acetyldeoxynivalenol]
collision cross section (N2) ([1]; [M+H3C2O2]-): 196 Å²

CC(=O)OC[C@]12[C@H](O)C(=O)C(C)=C[C@H]1O[C@@H]1[C@H](O)C[C@@]2(C)[C@]12CO2 [15-Acetyldeoxynivalenol]
collision cross section (N2) ([1]; [M+H3C2O2]-): 196 Å²

COc1cc2c(c3oc(=O)c4c(c13)CCC4=O)[C@@H]1C=CO[C@@H]1O2 [Aflatoxin B1]
collision cross section (N2) ([1]; [M+H]+): 161 Å² | collision cross section (N2) ([1]; [M+K]+): 177.1 Å² | collision cross section (N2) ([1]; [M+Na]+): 164 Å²

COc1cc2c(c3oc(=O)c4c(c13)CCOC4=O)C1C=COC1O2 (stereo not drawn) [Aflatoxin G1]
collision cross section (N2) ([1]; [M+H]+): 164 Å² | collision cross section (N2) ([1]; [M+K]+): 180.2 Å² | collision cross section (N2) ([1]; [M+Na]+): 176.5 Å²

COc1cc2c(c3oc(=O)c4c(c13)CCC4=O)[C@]1(O)C=CO[C@@H]1O2 [Aflatoxin M1]
collision cross section (N2) ([1]; [M+H]+): 166 Å² | collision cross section (N2) ([1]; [M+K]+): 177.8 Å² | collision cross section (N2) ([1]; [M+Na]+): 179.5 Å²

CC1=C2C(=CO[C@H](C)[C@H]2C)C(=O)C(C(=O)O)=C1O [Citrinin]
collision cross section (N2) ([1]; [M+H]+): 148 Å²

CC(=O)C1=C(O)[C@@H]2[C@H]3c4c[nH]c5cccc(c45)C[C@H]3C(C)(C)N2C1=O [Cyclopiazonic acid]
collision cross section (N2) ([1]; [M-H]-): 174 Å²

CC1=C[C@H]2O[C@@H]3[C@H](O)C[C@](C)([C@@]2(CO)[C@H](O)C1=O)[C@]31CO1 [Deoxynivalenol]
collision cross section (N2) ([1]; [M+H3C2O2]-): 183 Å²

CCCCCC/C=C\CCCCCCCCCC(=O)OC[C@H](COP(=O)([O-])OCC[N+](C)(C)C)OC(=O)CCCCCCC/C=C\CCCCCC [PC(34:2)]
collision cross section (N2) ([2]; [M+H]+): 282.64 Å² and 284.2 Å² | collision cross section (N2) ([3]; [M+HCOO]-): 285.5 Å² | collision cross section (N2) ([3]; [M+H]+): 285.2 Å² | collision cross section (N2) ([3]; [M+Na]+): 289.4 Å² | collision cross section (N2) ([4]; [M+K]+): 291.3 Å² | collision cross section (N2) ([5]; [M+H]+): 302.6 Å² | collision cross section (N2) ([6]; [M+CH3COO]-): 287.7 Å² | collision cross section (N2) ([6]; [M+H]+): 281.7 Å²

CCCCCCCC/C=C\CCCCCCCCCCCC(=O)OC[C@H](COP(=O)([O-])OCC[N+](C)(C)C)OC(=O)CCCCCCCCCCCCC [PC(36:1)]
collision cross section (N2) ([2]; [M+H]+): 292.57 Å² | collision cross section (N2) ([2]; [M+Na]+): 294 Å² | collision cross section (N2) ([3]; [M+HCOO]-): 292.3 Å² | collision cross section (N2) ([3]; [M+H]+): 293.9 Å² | collision cross section (N2) ([3]; [M+Na]+): 297.1 Å² | collision cross section (N2) ([5]; [M+H]+): 306.2 Å² | collision cross section (N2) ([6]; [M+CH3COO]-): 294.5 Å² | collision cross section (N2) ([6]; [M+H]+): 291.6 Å²

CCCCC/C=C\C/C=C\CCCCCCCCCCCC(=O)O[C@H](COC(=O)CCCCCCC/C=C\CCCCCC)COP(=O)(O)OCCN [PE(38:3)]
collision cross section (N2) ([3]; [M-H]-): 273.3 Å² | collision cross section (N2) ([4]; [M+Na]+): 289.3 Å² | collision cross section (N2) ([5]; [M+H]+): 297.1 Å² | collision cross section (N2) ([6]; [M-H]-): 271.7 Å²

CCCCC/C=C\C/C=C\C/C=C\C/C=C\CCCCCC(=O)O[C@H](COC(=O)CCCCCCC/C=C\C/C=C\CCCCC)COP(=O)(O)OCCN [PE(40:6)]
collision cross section (N2) ([3]; [M+H]+): 284.5 Å² | collision cross section (N2) ([3]; [M+Na]+): 290.3 Å² | collision cross section (N2) ([3]; [M-H]-): 276.2 Å² | collision cross section (N2) ([4]; [M+K]+): 294.7 Å² | collision cross section (N2) ([5]; [M-H]-): 289.4 Å² | collision cross section (N2) ([6]; [M+H]+): 282.9 Å² | collision cross section (N2) ([6]; [M-H]-): 275.4 Å²

CCCCC/C=C\C/C=C\CCCCCCCCCC(=O)O[C@H](COC(=O)CCCCCCCCCCCCCC)COP(=O)(O)OC[C@@H](O)CO [PG(35:2)]
collision cross section (N2) [7]: 271.4 Å² | collision cross section (N2) ([5]; [M-H]-): 278.7 Å²

From the C3SDB collision cross section collection
